The results in this text go back to patent US7504420B2, “Compounds which inhibit beta-secretase activity and methods of use” (CoMentis, Inc., priority 2005, dated 2009).

Some results are limits rather than exact numbers.

One assay addresses memapsin 2 (Homo sapiens, UniProt P56817). Put plainly: Inhibition of memapsin 2 catalytic activity (Ki). In kind it is biochemical. The following applies: memapsin 2, pH 4, 37° C.; read-out: M2K. Summed up: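 Run at 37 °C and pH 4: compound and enzyme pre-incubated 20 min before FS-2 fluorogenic substrate started hydrolysis,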
The next assay addresses cathepsin D (Homo sapiens, UniProt P07339). Put plainly: Inhibition of cathepsin D catalytic activity (Ki). It is filed as biochemical. Conditions: pH 4.0, 37° C., read-out: CDK.
A further assay deals with T1, memapsin 1 (Homo sapiens, UniProt Q9Y5Z0).
T1 sequence (Q9Y5Z0 63-518): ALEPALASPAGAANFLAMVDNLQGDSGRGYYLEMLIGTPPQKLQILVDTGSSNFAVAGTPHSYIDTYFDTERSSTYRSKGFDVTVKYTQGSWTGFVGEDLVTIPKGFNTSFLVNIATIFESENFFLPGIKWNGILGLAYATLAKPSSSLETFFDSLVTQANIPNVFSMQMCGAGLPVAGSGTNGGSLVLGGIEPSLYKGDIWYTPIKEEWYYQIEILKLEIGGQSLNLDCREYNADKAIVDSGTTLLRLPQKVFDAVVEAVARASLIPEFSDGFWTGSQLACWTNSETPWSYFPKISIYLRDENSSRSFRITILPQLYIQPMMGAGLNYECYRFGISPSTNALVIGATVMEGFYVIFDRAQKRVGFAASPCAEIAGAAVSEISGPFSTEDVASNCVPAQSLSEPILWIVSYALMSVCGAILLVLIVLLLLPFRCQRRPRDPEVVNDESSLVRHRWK
In words: Inhibition of memapsin 1 catalytic activity (Ki). It is filed as biochemical. The following applies: memapsin 1, pH 4.0, 37° C.; read-out: M1K. Here is the method: A substrate peptide NH3-ELDLAVEFWHDR-CO2 (SEQ ID NO.:1) (used for inhibition assay of memapsin 2, memapsin 1, and cathepsin D) was dissolved at 2 mg/ml in DMSO and diluted 1:100 in 0.1 M sodium acetate, pH 4.0 just prior to assay. Inhibitor dissolved in DMSO was diluted into 0.1 M sodium acetate, pH 4.0 (1:100 dilution). A […] aliquot of the inhibitor solution in pH 4 buffer was combined with […] of 0.1 M sodium acetate containing 100-200 nM of memapsin 1, memapsin 2, or cathepsin D. Following a pre-incubation at 37° C., the proteolytic assay was initated by addition of […] of the substrate diluted into pH 4 buffer, and incubation continued at 37° C. Aliquots were removed at time intervals, and combined with an equal volume of MALDI-TOF matrix (α-hydroxycinnamic acid in acetone, 20 mg/ml) and immediately spotted in duplicate onto a stainless-steel MALDI sample plate. MALDI-TOF mass spectrometry was performed on a PE Biosystems Voyager DE instrument at the Molecular Biology Resource Center on campus. The instrument was operated at 25,000 accelerating volts in positive mode with a 150 ns delay. Ions with a mass-to-charge ratio (m/z) were detected in the range of 650-2000 atomic mass units. Data were analyzed by the Voyager Data Explorer module to obtain ion intensity data for mass species of substrates and corresponding products in a given mixture. Relative product formation was calculated as the ratio of signal intensity of the product to the sum of signal intensities of both product and the corresponding substrate. Relative product formed per unit time was obtained from non-linear regression analysis of the data representing the initial 15% formation of product using the model: 1−e^−kT, where k was the relative hydrolytic rate constant and T was time in seconds. Alternatively, relative hydrolytic rates were determined using a fluorogenic cleavage assay (Ermolieff, J. et al., Biochemistry, 39: 12450-12456 (2000)). Initial rates from either method were expressed relative to uninhibited controls and the inhibition constant Ki was determined by a non-linear fit to a tight-binding model of competitive inhibition (Bieth, J., Bayer-Symposium V: Proteinase Inhibitors, pp 463-469, Spinger-Varlag, Berlin (1994)). Results are shown in Table 1 above (M2K, CDK, and M1K columns represent, respectively, the K1 values obtained for memapsin 2, cathepsin D and memapsin 1).

The subject of assay [1] is Aβ production in Chinese hamster ovary cells that over-express human APP695 with the London and Swedish mutations. Put plainly: Cellular Aβ IC50 determination (Aβ40 sandwich ELISA). Conditions: Cricetulus griseus, CHO, 24 h, read-out: Cell, Aβ40, CHO cells over-expressing human APP695 (London and Swedish mutations), 24 h. For orientation: ELISA stands for enzyme-linked immunosorbent assay.

Sequence of cathepsin D (P07339 65-412, species assumed): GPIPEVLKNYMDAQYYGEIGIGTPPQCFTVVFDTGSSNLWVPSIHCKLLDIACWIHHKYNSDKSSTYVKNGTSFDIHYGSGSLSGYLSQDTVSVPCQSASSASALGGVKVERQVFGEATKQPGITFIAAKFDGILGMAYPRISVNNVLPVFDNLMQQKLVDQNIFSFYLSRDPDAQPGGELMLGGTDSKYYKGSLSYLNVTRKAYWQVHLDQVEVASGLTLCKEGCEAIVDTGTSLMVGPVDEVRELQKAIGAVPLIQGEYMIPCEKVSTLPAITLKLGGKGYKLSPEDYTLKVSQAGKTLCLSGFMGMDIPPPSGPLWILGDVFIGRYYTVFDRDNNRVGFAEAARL
Sequence of memapsin 2 (P56817 46-501): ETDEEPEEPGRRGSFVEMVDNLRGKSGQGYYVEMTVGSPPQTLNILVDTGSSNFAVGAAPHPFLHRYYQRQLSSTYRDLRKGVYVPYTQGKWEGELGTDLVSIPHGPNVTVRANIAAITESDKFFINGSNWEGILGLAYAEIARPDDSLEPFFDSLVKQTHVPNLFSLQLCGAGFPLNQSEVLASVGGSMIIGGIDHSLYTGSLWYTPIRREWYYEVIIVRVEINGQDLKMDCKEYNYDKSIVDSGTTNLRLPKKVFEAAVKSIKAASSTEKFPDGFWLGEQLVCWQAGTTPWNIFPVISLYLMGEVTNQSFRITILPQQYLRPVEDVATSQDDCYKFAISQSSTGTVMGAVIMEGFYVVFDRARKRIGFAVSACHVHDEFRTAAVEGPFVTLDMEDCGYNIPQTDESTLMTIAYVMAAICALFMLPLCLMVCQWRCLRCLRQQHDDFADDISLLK

In the case of `CC(NC(=O)c1cc(C(=O)NC(Cc2ccccc2)C(O)CNCc2cccnc2)cc(N(C)S(C)(=O)=O)c1)c1ccccc1` (stereo not shown) [N1-(3-hydroxy-1-phenyl-4-(pyridin-3-ylmethylamino)butan-2-yl)-5-(N-methylmethylsulfonamido)-N3-(1-phenylethyl)isophthalamide], the Ki was under 300 nM on memapsin 2, over 501 nM on cathepsin D and 301 to 500 nM on memapsin 1. Moreover, the IC50 in assay [1] was under 1000 nM.

For the compound `CC(NC(=O)c1cc(C(=O)NC(Cc2ccccc2)C(O)CNCc2ccccc2O)cc(N(C)S(C)(=O)=O)c1)c1ccccc1` (stereo not shown) [N1-(3-hydroxy-4-(2-hydroxybenzylamino)-1-phenylbutan-2-yl)-5-(N-methylmethylsulfonamido)-N3-(1-phenylethyl)isophthalamide], the Ki on memapsin 2, on cathepsin D and on memapsin 1 was under 300 nM throughout. Besides, the IC50 in assay [1] is under 1000 nM.

Regarding `CC(=O)Nc1cccc(CNCC(O)C(Cc2ccccc2)NC(=O)c2cc(C(=O)NC(C)c3ccccc3)cc(N(C)S(C)(=O)=O)c2)c1` (stereo not shown) [N1-(4-(3-acetamidobenzylamino)-3-hydroxy-1-phenylbutan-2-yl)-5-(N-methylmethylsulfonamido)-N3-(1-phenylethyl)isophthalamide], the values for the Ki on memapsin 2, on cathepsin D and at memapsin 1 were under 300 nM, 301 to 500 nM and under 300 nM, respectively. For the same compound, in assay [1], the IC50 is under 1000 nM.

`Cc1csc(CN(C)C(=O)c2cccc(C(=O)NC(Cc3ccccc3)C(O)CNCc3cccc(F)c3)c2)n1` (stereo not shown) [N1-(4-(3-fluorobenzylamino)-3-hydroxy-1-phenylbutan-2-yl)-N3-methyl-N3-((4-methylthiazol-2-yl)methyl)isophthalamide]: the Ki on memapsin 2 was over 501 nM; at cathepsin D, under 300 nM; on memapsin 1 it was over 501 nM. For the same compound, the IC50 in assay [1] was under 1000 nM.

With `COc1cccc(CNCC(O)C(Cc2ccccc2)NC(=O)c2cccc(C(=O)NC(C)c3cccnc3)c2)c1` (stereo not shown) [N1-(3-hydroxy-4-(3-methoxybenzylamino)-1-phenylbutan-2-yl)-N3-(1-(pyridin-3-yl)ethyl)isophthalamide], the Ki at memapsin 2, on cathepsin D and on memapsin 1 was over 501 nM throughout. The IC50 in assay [1] is over 5000 nM.

Turning to `Cc1cncc(CNCC(O)C(Cc2ccccc2)NC(=O)c2cc(C(=O)NC(C)c3ccccc3)cc(N(C)S(C)(=O)=O)c2)c1` (stereo not shown) [N1-(3-hydroxy-4-((5-methylpyridin-3-yl)methylamino)-1-phenylbutan-2-yl)-5-(N-methylmethylsulfonamido)-N3-(1-phenylethyl)isophthalamide], the figures for the Ki at memapsin 2, on cathepsin D and on memapsin 1 were under 300 nM, under 300 nM and 301 to 500 nM, respectively. Moreover, the IC50 in assay [1] is under 1000 nM.

For `CC(NC(=O)c1cc(C(=O)NC(Cc2ccccc2)C(O)CNN(C)c2ccccc2)cc(N(C)S(C)(=O)=O)c1)c1ccccc1` (stereo not shown) [N1-(3-hydroxy-4-(2-methyl-2-phenylhydrazinyl)-1-phenylbutan-2-yl)-5-(N-methylmethylsulfonamido)-N3-(1-phenylethyl)isophthalamide], the Ki on memapsin 2 was 301 to 500 nM; at cathepsin D, over 501 nM; at memapsin 1, over 501 nM. Moreover, the IC50 in assay [1] is over 5000 nM.

For `CCC(NC(=O)c1cc(C(=O)NC(Cc2ccccc2)C(O)CNCc2cccc(OC)c2)cc(N(C)S(C)(=O)=O)c1)c1ccccc1` (stereo not shown) [N1-(3-hydroxy-4-(3-methoxybenzylamino)-1-phenylbutan-2-yl)-5-(N-methylmethylsulfonamido)-N3-(1-phenylpropyl)isophthalamide], the Ki at memapsin 2, on cathepsin D and at memapsin 1 was under 300 nM in each case. The IC50 in assay [1] is under 1000 nM.

For the compound `Cc1csc(CN(C(=O)c2cccc(C(=O)NC(Cc3ccccc3)C(O)CNCc3cncc(C(C)C)c3)c2)C2CC2)n1` (stereo not shown) [N1-cyclopropyl-N3-(3-hydroxy-4-((5-isopropylpyridin-3-yl)methylamino)-1-phenylbutan-2-yl)-N1-((4-methylthiazol-2-yl)methyl)isophthalamide], the Ki on memapsin 2, on cathepsin D and on memapsin 1 was under 300 nM each time. Further, the IC50 in assay [1] is under 1000 nM.

`CC(NC(=O)c1cc(C(=O)NC(Cc2ccccc2)C(O)CNCc2ccccn2)cc(N(C)S(C)(=O)=O)c1)c1ccccc1` (stereo not shown) [N1-(3-hydroxy-1-phenyl-4-(pyridin-2-ylmethylamino)butan-2-yl)-5-(N-methylmethylsulfonamido)-N3-(1-phenylethyl)isophthalamide]: the Ki on memapsin 2 was under 300 nM; at cathepsin D, over 501 nM; at memapsin 1, over 501 nM. Moreover, in assay [1], the IC50 was under 1000 nM.

On to `CC(NC(=O)c1cc(C(=O)NC(Cc2ccccc2)C(O)CNCc2ccccc2)cc(N(C)S(C)(=O)=O)c1)c1ccccc1` (stereo not shown) [N1-(4-(benzylamino)-3-hydroxy-1-phenylbutan-2-yl)-5-(N-methylmethylsulfonamido)-N3-(1-phenylethyl)isophthalamide], for which the Ki at memapsin 2, at cathepsin D and on memapsin 1 was under 300 nM each time. Further, in assay [1], the IC50 is under 1000 nM.

Take `COc1cccc(CNCC(O)C(Cc2ccccc2)NC(=O)c2cccc(C(=O)N(C)Cc3nc(C)cs3)c2)c1` (stereo not shown) [N1-(3-hydroxy-4-(3-methoxybenzylamino)-1-phenylbutan-2-yl)-N3-methyl-N3-((4-methylthiazol-2-yl)methyl)isophthalamide]: the Ki on memapsin 2 is under 300 nM; at cathepsin D, under 300 nM; on memapsin 1, over 501 nM. Further, in assay [1], the IC50 was under 1000 nM.

With `Cc1csc(CN(C)C(=O)c2cccc(C(=O)NC(Cc3ccccc3)C(O)CNCc3cncc(C(C)C)c3)c2)n1` (stereo not shown) [N1-(3-hydroxy-4-((5-isopropylpyridin-3-yl)methylamino)-1-phenylbutan-2-yl)-N3-methyl-N3-((4-methylthiazol-2-yl)methyl)isophthalamide], the Ki on memapsin 2 was under 300 nM; on cathepsin D it was under 300 nM; on memapsin 1, 301 to 500 nM. Besides, the IC50 in assay [1] is under 1000 nM.

For the compound `COc1cccc(CNCC(O)C(Cc2ccccc2)NC(=O)c2cc(C(=O)NCc3cccc(OC)c3)cc(N(C)S(C)(=O)=O)c2)c1` (stereo not shown) [N1-(3-hydroxy-4-(3-methoxybenzylamino)-1-phenylbutan-2-yl)-N3-(3-methoxybenzyl)-5-(N-methylmethylsulfonamido)isophthalamide], the Ki at memapsin 2 was under 300 nM; on cathepsin D, under 300 nM; at memapsin 1 it was over 501 nM. For the same compound, the IC50 in assay [1] lay within 1000 to 5000 nM.

For the compound `COC(=O)c1cccc(CNCC(O)C(Cc2ccccc2)NC(=O)c2cc(C(=O)NC(C)c3ccccc3)cc(N(C)S(C)(=O)=O)c2)c1` (stereo not shown) [methyl 3-((2-hydroxy-3-(3-(N-methylmethylsulfonamido)-5-(1-phenylethylcarbamoyl)benzamido)-4-phenylbutylamino)methyl)benzoate], the Ki on memapsin 2, at cathepsin D and on memapsin 1 was over 501 nM in each case. Besides, the IC50 in assay [1] was under 1000 nM.

In the case of `Cc1cccc(CNCC(O)C(Cc2ccccc2)NC(=O)c2cc(C(=O)NC(C)c3ccccc3)cc(N(C)S(C)(=O)=O)c2)c1` (stereo not shown) [N1-(3-hydroxy-4-(3-methylbenzylamino)-1-phenylbutan-2-yl)-5-(N-methylmethylsulfonamido)-N3-(1-phenylethyl)isophthalamide], the Ki on memapsin 2 is under 300 nM; on cathepsin D, under 300 nM; on memapsin 1, 301 to 500 nM. In assay [1], the IC50 is under 1000 nM.
